Entries after “also recorded” stand apart in the source; their conditions may differ.
Test system: decay organisms
Test: soil contact veneer exposure test: dip-treated Scots pine sapwood veneers half buried in damp compost, pulled by hand weekly until failure
Conditions: for half life, Low level with 0.8% Imazalil: 0.8% fungicide plus 0.8% imazalil; for average time for failure to occur (half life) / average time for failure to occur (half life), combination with imazalil sulfate / estimated expected average time for failure, combination with imazalil sulfate: Example 1; for average time for failure to occur (half life): biocide alone: 0.6% dichlorophen, 0.2% triclosan, 0.8% fenarimol, 0.8% PHMB, 0.4% imazalil sulfate, 6 veneers; for estimated expected half life for 1% fungicide plus 1% Imazalil sulfate / Half life for 1% fungicide plus 1% Imazalil sulfate / Half life for fungicide at 2% active ingredient (ai): Example 3; for synergy of the combination with imazalil sulfate: actual versus expected average time to failure; for half life, Low level with 0.8% Imazalil sulfate: 0.8% fungicide plus 0.8% imazalil sulfate, IMS; for average time for failure to occur (half life), combination with imazalil sulfate: 0.3% dichlorophen, 0.1% triclosan, 0.4% fenarimol or 0.4% PHMB, each plus 0.2% imazalil sulfate; for estimated expected average time for failure, combination with imazalil sulfate: midway between the two single biocides
Excerpt: The present invention also provides a simple exposure test for evaluating the wood preserving abilities of candidate ingredients or compositions. This exposure test is based on the premise that small dimension timber test specimens tend to fail more quickly than larger ones in soil contact situations.
It is preferable that the thickness of the veneers be greater than 0.1 mm, as veneers of lesser thickness can often be pulled apart by hand without undergoing exposure to decay organisms. Veneers which are thicker than 0.4 may take an excessive amount of time to fail the exposure test. In one embodiment, the thickness of the veneers is about 0.2 mm and the wood is the sapwood of the Scots pine (Pinus sylvestris). Other woods and thicknesses can be used. […] An example of convenient width and length dimensions are 15×50 mm. However, width and length are not critical provided they are kept consistent within a test, although very large or small length or width dimensions may be difficult to handle.
Accordingly, the test of the present invention comprises testing the integrity of a veneer after exposure to a decay-inducing environment. In one embodiment, this environment is damp compost in which decay organisms are present and water is present at just above the water holding capacity of the compost. If desired, other media can be used, and the test can be conducted at water contents which are below, at, or above the water-holding capacity of the media.
In general, the integrity of the veneer is inversely related to the length of exposure to the decay promoting environment. The integrity of the veneer can be tested by applying a force to the veneer and noting whether or not the veneer breaks. Thus, if wood preservative agents are applied to the veneers, these veneers would be expected to withstand longer exposure to the environment without breaking compared to control veneers without breaking.
The force applied to the veneers is preferably a force which pulls the two ends in opposite directions. The force can be applied by the use of an instrument or manually. If there is significant decay the veneer will break, generally near the junction between the portion submerged in the decay accelerating medium and the portion exposed to air. If the force is applied manually, it is preferable that the same individual conduct the test at the various exposure time points.
The veneers were cut such that both late wood and early wood were present in each veneer. The following biocides were tested: imazalil sulfate, dichlorophen, fenarimol, triclosan, and PHMB. To allow the mixing together of the five selected biocides in any combination the biocides were formulated such that they could be mixed together (all the percentages are mass/mass):
Test solutions were prepared and sets of veneers were dip treated such that there were 6 replicate veneers for each treatment under investigation. Additionally six veneers were dip treated in deionised water to act as water controls. […] Plastic containers (approximately 350×220 mm by at least 60 mm high) were part filled with John Innes Number 2 potting compost at a little above its water holding capacity. The veneers for this particular test were placed in six rows within a container such that approximately half the veneer was below the compost and half above. The veneers were placed in the compost such than those given a particular treatment were distributed throughout the container and were not grouped together. The containers, compost and veneers were weighed then incubated at about 30° C. and near 100% relative humidity in an incubator. Each week during the test the assembly was reweighed and deionised water added to bring it back to its original mass. After 3 weeks each veneer was examined in turn. It was held between the fore finger and thumb at each end and pulled to see if it could be broken. If it could be pulled apart a failure was recorded.

[1] = Example 7, solutions in acetone
[2] = Example 10, additive expectation
[3] = Example 10, solutions in IMS (alcohol)
[4] = Example 14, 0.6% dichlorophen or 0.4% imazalil sulfate alone
[5] = Example 15, 2.0% alone, solutions in IMS (alcohol)
[6] = Example 16, 0.8% alone, solutions in IMS (alcohol)
[7] = Example 16, 1.6% alone, solutions in IMS (alcohol)
[8] = unnumbered table, solutions in IMS
[9] = unnumbered table, additive expectation
[10] = Example 5, additive expectation
[11] = Example 5, solutions in acetone

CC(C1CC1)C(O)(Cn1cncn1)c1ccc(Cl)cc1 (stereo not drawn) [Cyproconazole, α-(4-chlorophenyl)-α-(1-cyclopropylethyl)-=1H-1,2,4-triazol-1-ethanol]
estimated expected half life, Low level (0.8%) plus 0.8% Imazalil (Example 7, additive expectation): {5.42 weeks}
half life, High level (1.6%) [1]: 4.67 weeks
half life, Low level (0.8%) [1]: 4.17 weeks
half life, Low level (0.8%) plus 0.8% Imazalil [1]: 6.17 weeks
half life, Low level with 0.8% Imazalil (Example 10, IMS (alcohol)): 6.17 weeks
estimated expected half life, Low level with 0.8% Imazalil [2]: (5.42 weeks)
half life, High level (1.6%) [3]: 4.67 weeks
half life, Low level (0.8%) [3]: 4.17 weeks

Oc1ccc(Cl)cc1Cc1cc(Cl)ccc1O [Dichlorophen, 2,2′-methylenebis[4-chlorophenol]]
average time for failure to occur (half life): 9.50 weeks
estimated expected half life for 1% fungicide plus 1% Imazalil sulfate (additive expectation): 12.92 weeks
Half life for 1% fungicide plus 1% Imazalil sulfate (solutions in IMS (alcohol)): 15.33 weeks
Half life for fungicide at 2% active ingredient (ai) (solutions in IMS (alcohol)): 19.83 weeks
half life, With Imazalil sulfate (Example 14, 0.3% dichlorophen plus 0.2% imazalil sulfate): 11.2 weeks
half life, No addition [4]: 9.5 weeks
expected half life, With Imazalil sulfate (Example 14, additive expectation): {7.4 weeks}
half life, With Imazalil sulfate (Example 15, 1.0% dichlorophen plus 1.0% imazalil sulfate, IMS (alcohol)): 19.67 weeks
half life, No addition [5]: 17.00 weeks
expected half life, With Imazalil sulfate (Example 15, additive expectation): {12.42 weeks}
Calculated half life [6]: 11.33 weeks
Calculated half life (Example 16, 0.8% dichlorophen plus 0.8% imazalil sulfate, IMS (alcohol)): 13.00 weeks
expected half life (Example 16, 0.8% dichlorophen plus 0.8% imazalil sulfate, additive expectation): {11.25 weeks}
Calculated half life [7]: 14.50 weeks
synergy of the combination with imazalil sulfate: positive synergy; also recorded: exceeded the expected value

copper naphthenate [Copper (as copper naphthenate)]
estimated expected half life for 1% fungicide plus 1% Imazalil (Example 6, additive expectation): {10.50 weeks}
Half life for fungicide at 2% ai (Example 6, solutions in xylene): 14.83 weeks
Half life for 1% fungicide plus 1% Imazalil (Example 6, solutions in xylene, 1% copper): 11.67 weeks

1H-imidazole,1-(2-(2,4-dichlorophenyl)-2-(2-propenyloxy)ethyl)-, sulfate [Imazalil sulfate]
average time for failure to occur (half life): 5.17 weeks
average time for failure to occur, No Quat (Example 2, 0.60% imazalil sulfate alone (Table 3; text b187 says 0.4%)): 5.67 weeks
Half life for fungicide at 2% active ingredient (ai) (solutions in IMS (alcohol)): 6.00 weeks
Half life for fungicide at 2% ai (Example 4, Table 8 title: solutions in acetone (Table 7: deionised water)): 7.17 weeks
half life, No addition (Example 9, 1.4% BBIT or 0.4% imazalil sulfate alone, formulations which can be mixed together): 5.50 weeks
Calculated half life (Example 12, Fluid 1, 0.25% imazalil sulfate in deionized water): 5.00 weeks
Calculated half life (Example 12, Fluid 2, 0.50% imazalil sulfate in deionized water): 6.50 weeks
Calculated half life (Example 12, Fluid 3, 1.00% imazalil sulfate in deionized water): 6.83 weeks
Calculated half life (Example 12, Fluid 4, 1.50% imazalil sulfate in deionized water): 8.17 weeks
half life, No addition [4]: 5.2 weeks
half life, No addition [5]: 7.83 weeks
Calculated half life [6]: 7.00 weeks
Calculated half life [7]: 8.00 weeks
half life, High level (1.6%) (solutions in IMS): 5.83 weeks
half life, Low level (0.8%) (solutions in IMS): 5.00 weeks
half life, High level (1.6%) [8]: 7.00 weeks
half life, Low level (0.8%) [8]: 5.67 weeks

N,N-didecyl-N-methyl-poly(oxethyl)ammonium propionate [Bardap 26]
half life, Low level with 0.8% Imazalil sulfate: 4.83 weeks
average time for failure to occur, quat with Imazalil sulfate (Example 2, 0.18% active quat plus 0.30% imazalil sulfate (Table 3; text b187 says 0.2%)): 5.33 weeks
average time for failure to occur, Quat Only (Example 2, 0.36% active quat in deionised water): 5.00 weeks
estimated expected average time for failure, quat with Imazalil sulfate (Example 2, additive expectation): 5.34 weeks
synergy of the combination with imazalil sulfate: approximates that predicted in the case of no synergy
expected half life, Low level with 0.8% Imazalil sulfate (additive expectation): {5.50 weeks}
half life, High level (1.6%) (solutions in IMS): 5.17 weeks
half life, Low level (0.8%) (solutions in IMS): 4.67 weeks

COC(=O)N(OC)c1ccccc1COc1ccn(-c2ccc(Cl)cc2)n1 [Pyraclostrobin, methyl N-{2-[1-(4-chlorophenyl)-1H-pyrazol-3-yloxymethyl]phenyl}(N-methoxy)carbamate]
estimated expected half life for 1% fungicide plus 1% Imazalil sulfate (additive expectation): 6.09 weeks
Half life for 1% fungicide plus 1% Imazalil sulfate (solutions in IMS (alcohol)): 6.50 weeks
Half life for fungicide at 2% active ingredient (ai) (solutions in IMS (alcohol)): 6.17 weeks

O=C(Nc1ccccc1)c1ccccc1O [Salicylanilide, 2-hydroxy-N-phenylbenzamide]
half life, Low level with 0.8% Imazalil sulfate (unnumbered table): 6.50 weeks
expected half life, Low level with 0.8% Imazalil sulfate [9]: {6.34 weeks}
half life, High level (1.6%) [8]: 5.67 weeks
half life, Low level (0.8%) [8]: 4.83 weeks

Oc1cc(Cl)ccc1Oc1ccc(Cl)cc1Cl [Trichlosan, 5-chloro-2-(2,4-dichlorophenoxy)phenol]
average time for failure to occur (half life), combination with imazalil sulfate: 5.50 weeks
estimated expected average time for failure, combination with imazalil sulfate (additive expectation): (4.75) weeks
average time for failure to occur (half life): ~4.33 weeks
synergy of the combination with imazalil sulfate: positive synergy

CCCC1COC(Cn2cncn2)(c2ccc(Cl)cc2Cl)O1 (stereo not drawn) [Propiconazole, 1-[[2-(2,4-dichlorophenyl)-4-propyl-1,3-dioxolan-2-yl]=methyl]-1H-1,2,4-triazole]
estimated expected half life for 1% fungicide plus 1% Imazalil [10]: {6.59 weeks}
Half life for 1% fungicide plus 1% Imazalil [11]: 7.33 weeks
Half life for fungicide at 2% ai [11]: 5.50 weeks
half life, Low level with 0.8% Imazalil (Example 10, IMS (alcohol)): 6.17 weeks
estimated expected half life, Low level with 0.8% Imazalil [2]: (5.84 weeks)
half life, High level (1.6%) [3]: 5.50 weeks
half life, Low level (0.8%) [3]: 5.33 weeks

OB(O)O [Boric acid]
half life, Low level with 0.8% Imazalil sulfate (unnumbered table): 5.33 weeks
expected half life, Low level with 0.8% Imazalil sulfate [9]: {5.57 weeks}
half life, High level (1.6%) [8]: 4.50 weeks
half life, Low level (0.8%) [8]: 3.83 weeks

CCCCCCCCCCCCCN1CC(C)OC(C)C1 (stereo not drawn) [Tridemorph, 4-alkyl-2,6-dimethylmorpholine]
estimated expected half life for 1% fungicide plus 1% Imazalil sulfate (additive expectation): 5.42 weeks
Half life for 1% fungicide plus 1% Imazalil sulfate (solutions in IMS (alcohol)): 6.33 weeks
Half life for fungicide at 2% active ingredient (ai) (solutions in IMS (alcohol)): 4.83 weeks

CC(Cc1ccc(C(C)(C)C)cc1)CN1C[C@@H](C)O[C@@H](C)C1 (mixture of isomers) [Fenpropimorph, (±)-cis-4-[3-(4-tert-butylphenyl)-2-methylpropyl]-2,6-dimethyl=morpholine]
estimated expected half life for 1% fungicide plus 1% Imazalil sulfate (additive expectation): 5.34 weeks
Half life for 1% fungicide plus 1% Imazalil sulfate (solutions in IMS (alcohol)): 5.67 weeks
Half life for fungicide at 2% active ingredient (ai) (solutions in IMS (alcohol)): 4.67 weeks
half life, Low level with 0.8% Imazalil (Example 10, IMS (alcohol)): 5.83 weeks
estimated expected half life, Low level with 0.8% Imazalil [2]: (5.17 weeks)
half life, High level (1.6%) [3]: 4.17 weeks
half life, Low level (0.8%) [3]: 3.67 weeks

OC(c1ccc(Cl)cc1)(c1cncnc1)c1ccccc1Cl (racemic) [Fenarimol, (±)-2,4′-dichloro-α-(pyrimidin-5-yl)benzhydryl alcohol]
half life, Low level with 0.8% Imazalil sulfate: 6.67 weeks
average time for failure to occur (half life), combination with imazalil sulfate: 6.67 weeks
estimated expected average time for failure, combination with imazalil sulfate (additive expectation): (6.17) weeks
average time for failure to occur (half life): 7.17 weeks
synergy of the combination with imazalil sulfate: positive synergy
half life, High level (1.6%) (solutions in IMS): 5.00 weeks
half life, Low level (0.8%) (solutions in IMS): 4.50 weeks

CCCCCCCCn1sc(Cl)c(Cl)c1=O [RH 287, 4,5-dichloro-2-n-octyl-3(2H)-isothiazolone]
estimated expected half life for 1% fungicide plus 1% Imazalil [10]: {15.09 weeks}
Half life for 1% fungicide plus 1% Imazalil [11]: 19.33 weeks
Half life for fungicide at 2% ai [11]: 22.50 weeks
